Reference: patent US9441238B2, “Compositions and methods for modulating the sensitivity of cells to AHAS inhibitors” (SYNTHETIC GENOMICS, INC., priority 2012, dated 2016)

What was measured:
Nannochloropsis sp. = assay: Growth inhibition of Nannochloropsis by herbicide in growth media; format: cell-based
AHAS = conditions: previously reported, several organisms; cited from earlier work

**Q.** What does the source list for COC(=O)c1ccccc1S(=O)(=O)NC(=O)Nc1nc(C)nc(OC)n1 [metsulfuron methyl]?
**A.** growth of Nannochloropsis sp. (Nannochloropsis sp.): strongly inhibited; concentration that could be used to effectively suppress wild-type growth (Nannochloropsis sp.; wild-type): 30 µM; inhibitor of AHAS activity (AHAS): potent inhibitor
